From BindingDB's records for patent US12435089 (Tyk Medicines, 2025)
pIC50: −log10 of the molar value.

Assays:
Experiment in all cases: Inhibitory Activity of the Compounds of the Invention Against ROS1, NTRK and ALK and their Drug-Resistant Kinases
[1] = molecular target: NT-3 growth factor receptor (Homo sapiens, UniProt Q16288)
Description: (§1) Inhibition of protein kinase activity by compounds was carried out on the Radio-tagged HotSpot kinase experimental platform of Reaction Biology Corporation. Fresh reaction solution (20 mM HEPESpH 7.5, 10 mM MgCl2, 1 mM EGTA, 0.02% Brij35, 0.02 mg/ml BSA, 0.1 mM Na3VO4, 2 mM DTT, 1% DMSO) containing corresponding substrates was prepared, cofactor and kinase to be tested were added into the above solution and mixed gently. Echo550 pipetting system was used to add the test compound DMSO solution to each well (the blank control group was added with the corresponding volume of DMSO), then 33P-ATP (with a final specific activity of 0.01 μCi/μL) was added to start the reaction. The reaction solution was incubated at room temperature for 120 minutes.

[2] = molecular target: Proto-oncogene tyrosine-protein kinase ROS (Homo sapiens, UniProt P08922)
Description: as §1

[3] = molecular target: High affinity nerve growth factor receptor (Homo sapiens, UniProt P04629)
Description: as §1

Measured: pIC50

Chain of Proto-oncogene tyrosine-protein kinase ROS (P08922 whole entry): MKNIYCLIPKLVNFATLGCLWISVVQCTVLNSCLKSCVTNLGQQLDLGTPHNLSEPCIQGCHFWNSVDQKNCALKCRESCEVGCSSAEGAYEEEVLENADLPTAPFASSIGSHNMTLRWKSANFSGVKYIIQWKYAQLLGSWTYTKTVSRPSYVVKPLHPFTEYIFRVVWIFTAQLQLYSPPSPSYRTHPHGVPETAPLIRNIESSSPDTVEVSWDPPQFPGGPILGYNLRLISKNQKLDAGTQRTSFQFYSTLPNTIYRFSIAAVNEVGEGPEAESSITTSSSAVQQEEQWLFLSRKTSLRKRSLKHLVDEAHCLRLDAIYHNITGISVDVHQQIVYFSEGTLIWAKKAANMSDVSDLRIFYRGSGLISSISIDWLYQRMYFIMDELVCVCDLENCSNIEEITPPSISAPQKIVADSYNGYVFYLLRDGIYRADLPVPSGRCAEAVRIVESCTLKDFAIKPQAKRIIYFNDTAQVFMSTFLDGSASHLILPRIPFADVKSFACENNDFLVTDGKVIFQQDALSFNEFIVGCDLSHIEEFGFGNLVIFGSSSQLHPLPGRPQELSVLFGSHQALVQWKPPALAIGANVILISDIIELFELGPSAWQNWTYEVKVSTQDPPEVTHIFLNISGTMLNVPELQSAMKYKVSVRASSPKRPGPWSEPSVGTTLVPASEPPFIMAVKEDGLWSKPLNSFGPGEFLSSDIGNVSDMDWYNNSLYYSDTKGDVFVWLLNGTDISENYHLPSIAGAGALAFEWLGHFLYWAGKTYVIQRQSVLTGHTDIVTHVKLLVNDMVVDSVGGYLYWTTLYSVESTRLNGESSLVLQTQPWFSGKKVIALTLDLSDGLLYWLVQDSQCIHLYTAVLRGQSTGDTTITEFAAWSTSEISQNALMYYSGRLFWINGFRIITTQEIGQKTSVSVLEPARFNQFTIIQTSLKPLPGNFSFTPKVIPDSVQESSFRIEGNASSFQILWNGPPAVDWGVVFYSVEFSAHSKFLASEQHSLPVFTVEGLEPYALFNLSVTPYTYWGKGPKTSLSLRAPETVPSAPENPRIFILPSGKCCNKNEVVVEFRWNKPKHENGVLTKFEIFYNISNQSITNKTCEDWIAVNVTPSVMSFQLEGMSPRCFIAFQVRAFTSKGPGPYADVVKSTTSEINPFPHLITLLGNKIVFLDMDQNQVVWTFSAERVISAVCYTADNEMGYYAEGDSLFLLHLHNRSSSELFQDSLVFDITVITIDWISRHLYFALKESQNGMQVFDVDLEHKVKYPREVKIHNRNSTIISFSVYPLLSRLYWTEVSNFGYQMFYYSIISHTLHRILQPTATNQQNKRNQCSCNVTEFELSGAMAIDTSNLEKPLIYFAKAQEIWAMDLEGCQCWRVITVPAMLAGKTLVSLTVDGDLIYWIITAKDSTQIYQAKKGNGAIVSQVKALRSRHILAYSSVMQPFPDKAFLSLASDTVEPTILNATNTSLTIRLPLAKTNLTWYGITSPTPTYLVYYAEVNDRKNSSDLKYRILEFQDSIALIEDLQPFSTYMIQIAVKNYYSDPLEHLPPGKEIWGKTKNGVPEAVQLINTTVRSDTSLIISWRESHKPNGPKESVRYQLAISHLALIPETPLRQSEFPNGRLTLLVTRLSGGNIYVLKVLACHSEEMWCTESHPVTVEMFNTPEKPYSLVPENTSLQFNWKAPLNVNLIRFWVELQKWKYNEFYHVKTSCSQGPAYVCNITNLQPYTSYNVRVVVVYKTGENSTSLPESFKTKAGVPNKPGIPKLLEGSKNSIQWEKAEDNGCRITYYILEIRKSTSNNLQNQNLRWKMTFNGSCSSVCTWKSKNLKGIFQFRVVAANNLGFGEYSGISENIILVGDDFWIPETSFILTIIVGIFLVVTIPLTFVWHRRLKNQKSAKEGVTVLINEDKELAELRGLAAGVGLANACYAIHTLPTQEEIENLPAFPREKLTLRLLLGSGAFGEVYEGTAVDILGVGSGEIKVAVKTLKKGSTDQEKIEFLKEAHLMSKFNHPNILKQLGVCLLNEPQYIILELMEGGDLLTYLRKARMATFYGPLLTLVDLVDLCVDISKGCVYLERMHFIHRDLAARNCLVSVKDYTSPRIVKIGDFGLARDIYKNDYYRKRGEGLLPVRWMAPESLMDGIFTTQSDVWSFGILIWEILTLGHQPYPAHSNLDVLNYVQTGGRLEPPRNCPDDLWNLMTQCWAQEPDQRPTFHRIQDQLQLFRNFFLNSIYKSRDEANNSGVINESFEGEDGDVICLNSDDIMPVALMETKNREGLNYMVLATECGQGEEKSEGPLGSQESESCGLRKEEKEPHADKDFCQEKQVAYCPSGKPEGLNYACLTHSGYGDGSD
Chain of High affinity nerve growth factor receptor (P04629 whole entry): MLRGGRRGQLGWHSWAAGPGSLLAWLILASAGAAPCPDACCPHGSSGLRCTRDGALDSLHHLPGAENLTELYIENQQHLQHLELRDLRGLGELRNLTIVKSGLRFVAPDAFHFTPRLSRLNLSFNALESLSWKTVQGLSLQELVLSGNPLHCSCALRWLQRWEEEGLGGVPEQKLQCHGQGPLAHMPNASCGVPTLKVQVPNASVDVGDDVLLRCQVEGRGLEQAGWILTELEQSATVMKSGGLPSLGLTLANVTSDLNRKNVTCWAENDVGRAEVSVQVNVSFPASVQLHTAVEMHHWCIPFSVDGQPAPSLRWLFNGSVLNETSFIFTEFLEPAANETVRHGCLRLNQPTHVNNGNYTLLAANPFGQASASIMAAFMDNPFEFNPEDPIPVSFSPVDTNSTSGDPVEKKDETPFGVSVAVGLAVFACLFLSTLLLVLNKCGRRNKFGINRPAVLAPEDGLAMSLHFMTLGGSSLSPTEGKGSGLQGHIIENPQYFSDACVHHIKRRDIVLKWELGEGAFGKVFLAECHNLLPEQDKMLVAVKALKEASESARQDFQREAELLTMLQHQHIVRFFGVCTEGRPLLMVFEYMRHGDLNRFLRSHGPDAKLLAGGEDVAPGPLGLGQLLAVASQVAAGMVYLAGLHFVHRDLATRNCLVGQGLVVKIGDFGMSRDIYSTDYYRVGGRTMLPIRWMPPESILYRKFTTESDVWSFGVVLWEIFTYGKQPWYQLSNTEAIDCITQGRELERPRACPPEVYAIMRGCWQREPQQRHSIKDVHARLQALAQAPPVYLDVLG
Chain of NT-3 growth factor receptor (Q16288 whole entry): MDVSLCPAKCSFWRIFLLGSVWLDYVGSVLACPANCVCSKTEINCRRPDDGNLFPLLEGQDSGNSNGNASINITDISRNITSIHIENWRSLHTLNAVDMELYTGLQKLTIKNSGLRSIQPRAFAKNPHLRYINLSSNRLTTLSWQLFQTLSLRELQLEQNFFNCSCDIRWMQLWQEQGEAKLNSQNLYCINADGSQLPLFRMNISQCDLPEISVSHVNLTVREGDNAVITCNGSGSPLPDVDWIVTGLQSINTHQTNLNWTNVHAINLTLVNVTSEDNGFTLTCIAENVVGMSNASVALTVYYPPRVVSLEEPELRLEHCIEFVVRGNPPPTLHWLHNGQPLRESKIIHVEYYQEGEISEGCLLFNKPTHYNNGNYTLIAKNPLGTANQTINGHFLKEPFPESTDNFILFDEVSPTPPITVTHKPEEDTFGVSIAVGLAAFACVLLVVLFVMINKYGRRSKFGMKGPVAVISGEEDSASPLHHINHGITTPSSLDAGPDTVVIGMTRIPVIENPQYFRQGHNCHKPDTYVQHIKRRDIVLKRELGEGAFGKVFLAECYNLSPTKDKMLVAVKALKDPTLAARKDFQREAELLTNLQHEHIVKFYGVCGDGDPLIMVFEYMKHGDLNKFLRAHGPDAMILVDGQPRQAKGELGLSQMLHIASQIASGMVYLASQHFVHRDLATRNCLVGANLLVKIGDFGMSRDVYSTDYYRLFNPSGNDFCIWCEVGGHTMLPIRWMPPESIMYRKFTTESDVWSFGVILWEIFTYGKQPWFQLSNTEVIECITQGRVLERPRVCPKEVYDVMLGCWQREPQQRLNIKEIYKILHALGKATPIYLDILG

C[C@@H](Oc1ccn2ncc(C3=NOC(C)(C)N3)c2n1)c1c(Cl)ccc(F)c1Cl [US12435089, Example 9]
> 9.30: all assays above
